What was measured:
[1] = system: standard English bulldog test model; test: English bulldog test model of obstructive sleep apnea (hypersomnolence and sleep disordered breathing), Example 1; type: in vivo; details: 100 μg/kg i.v.; for Sleep disordered breathing index (SDBI): REM events per REM time/60 min; for Total sleep time (TST): eight hour observation
Protocol: Five bulldogs were implanted with subcutaneous electroencephalogram (EEG) electrodes and instrumented with respiratory oscillation belts (Respitrace™) to measure abdominal and ribcage movements and with an ear oximeter to measure oxygen saturation (SaO2). […] Montirelin in a sterile saline vehicle was administered intravenously to the test animals at a dosage of 100 μg/kg. Each test with active substance was preceded by a control day in which only the saline vehicle was administered. The effect of Montirelin on hypersomnolence and sleep disordered breathing was assessed.
Hypersomnolence was determined by sleep latency and total sleep time. Total sleep time (TST) is expressed as a percentage calculated by dividing the total sleep time in minutes by the total study time in minutes and multiplying the resulting quotient by 100 according to the formula: [formula]
Sleep latency was defined as the total minutes until the onset of non-REM sleep.
Sleep disordered breathing was evaluated in terms of a sleep disordered breathing index (SDBI) defined as the total number of rapid eye movement (REM) events divided by a quantity equal to the total REM time divided by 60 minutes according to the formula: [formula] A REM event (apnea) is defined as an incident of decreased or absent respiration and a decrease of 4% or more in the saturated blood oxygen (SaO2) level occurring during REM sleep.

Sprague-Dawley rats = test: Subacute repeated-dose (five weeks) intravenous toxicity with four-week recovery study in rats; type: in vivo, Sprague-Dawley rats (SPF Slc:SD)
Protocol: The subacute repeated-dose intravenous toxicity of Montirelin was investigated in Sprague-Dawley rats treated repeatedly at 0.05, 0.5,5 and 50 mg/kg/day for five weeks, and the reversibility of its toxic effects was also investigated by a four-week recovery study.
[…] SPF Slc:SD rats of both sexes (age: four weeks, body weight: 70.0-81.6 g) were purchased from Shizuoka Agriculture Cooperative Association for Laboratory Animals. During a one-week quarantine/acclimation period, the animals were measured for body weight and observed for any general symptoms, and healthy animals showing normal growth were selected and used in the experiment at the age of five weeks.
Males and females were used in five groups (including the control group) of 10 animals/sex, and additional 10 animals/sex were added to the control, 0.5 mg/kg and 50 mg/kg groups to investigate the reversibility of the toxic effect of the test substance. All these animals were randomized to each group by weight stratification so that the differences in initial mean body weight were within 2% between groups. At the start of the treatment, the body weight was 116.5-132.9 g for males and 107.0-123.4 g for females.
The maximal dose was set at […] lower doses were set at 5, 0.5 and 0.05 mg/kg using a common ratio of 1/10. This study also included the vehicle control group.
Dosing solutions were prepared by dissolving a weighed amount of the test substance in physiological saline at a concentration of 1 W/V % using a volumetric flask. Lower dosing solutions were obtained by successive 10-fold dilution of the initial solution. The respective dosing solution was repeatedly administered intravenously once daily for 35 days into the tail vein at a rate of 0.2 ml/10 sec. using a 1/4 syringe for injection. The treatment was given at a constant volume of 0.5 ml/100 g body weight in all dose groups, and the control group was treated with physiological saline at the same volume in the same manner.
Clinical signs in all animals were observed daily between two and four hours after dosing according to Irwin's method of comprehensive observational assessment, and the type, severity, onset time and disappearance time of toxic symptoms were recorded. During the recovery period, the clinical observation was performed once daily in the morning in the same manner. The body weight, food consumption and water consumption were measured in all animals three times weekly in the morning throughout the treatment and recovery periods and recorded.

central nervous system = details: known compound, background statement; cited from earlier work
[2] = system: bulldog with moderately severe obstructive sleep apnea; test: Dose study in one bulldog with moderately severe obstructive sleep apnea, Example 2; type: in vivo; details: for non-REM sleep RDI (respiratory disturbance incidents): saline control 6; for Arousal index: saline control 12; for REM sleep RDI (respiratory disturbance incidents): saline control 44; for Lowest O2 saturation: saline control 89; for Mean sleep efficiency: six hours, saline control 39%
Protocol: In a further experiment, Montirelin was administered on different days at varying dosage levels to one bulldog with moderately severe obstructive sleep apnea. In this bulldog, a double-blind study was conducted in which saline was administered as a control and four different doses of Montirelin (100 mg/kg, 200 mg/kg, 400 mg/kg and 800 mg/kg) were administered. The dog was studied on four different days at each dose of the active compound. […] The order of different doses of drug or saline control was randomized, and a wash-out period of two days was allowed after study of a particular dose. During the studies, respiratory movement, oxygen saturation and electroencephalogram for sleep state were measured. The number of sleep-disordered breathing events or respiratory disturbance incidents (RDI) per hour was calculated according to the formula given above both for non-rapid eye movement (non-REM) sleep, which occupies the majority of sleep time, and rapid eye movement (REM) sleep. Mean sleep efficiency and arousal index were also determined.

C[C@H]1SC[C@@H](C(=O)N[C@@H](Cc2c[nH]cn2)C(=O)N2CCC[C@H]2C(N)=O)NC1=O.O.O.O.O [Montirelin, (3R, 6R) -N-[(6-methyl-5-oxo-3-thiomorpholinyl)carbonyl]-L-histidyl-L-prolinamide tetrahydrate]
Awakening / sleep pattern, result in words ([1]; versus saline control): awaken less frequently and thus exhibit markedly better consolidated sleep patterns
Reduction in sleep disordered breathing ([1]; versus saline control): approximately 50%
Sleep depth, result in words ([1]; versus saline control): sleep may be somewhat shallower
Total sleep time, result in words ([1]; versus saline control): only a slight reduction in total sleep time
Sleep disordered breathing index (SDBI), average ([1]; Average of 5 dogs, saline control 15.9 ± 11): 8.7 ± 10
Total sleep time (TST), average ([1]; Average of 5 dogs, saline control 20.9 ± 8.3): 16.4 ± 8.5%
Sleep latency, average ([1]; Average of 5 dogs, saline control 91.4 ± 14): 142 ± 61.4 min
Sleep latency (minutes until onset of non-REM sleep) ([1]; Test dog 1): 47 min
Sleep disordered breathing index (SDBI) ([1]; Test dog 1): 7.2
Total sleep time (TST) ([1]; Test dog 1): 18.5%
Sleep latency (minutes until onset of non-REM sleep) ([1]; Test dog 2): 149 min
Sleep disordered breathing index (SDBI) ([1]; Test dog 2): 8.2
Total sleep time (TST) ([1]; Test dog 2): 17.0%
Sleep latency (minutes until onset of non-REM sleep) ([1]; Test dog 3): 145 min
Sleep disordered breathing index (SDBI) ([1]; Test dog 3): 2.6
Total sleep time (TST) ([1]; Test dog 3): 26.7%
Sleep latency (minutes until onset of non-REM sleep) ([1]; Test dog 4): 150 min
Sleep disordered breathing index (SDBI) ([1]; Test dog 4): 0.0
Total sleep time (TST) ([1]; Test dog 4): 17.0%
Sleep latency (minutes until onset of non-REM sleep) ([1]; Test dog 5): 219 min
Sleep disordered breathing index (SDBI) ([1]; Test dog 5): 25.7
Total sleep time (TST) ([1]; Test dog 5): 3.0%
Water consumption (Sprague-Dawley rats; 5 mg/kg/day or above i.v., from day 2-3 until about week 4): increased in both sexes
Day by which polyuria disappeared (Sprague-Dawley rats; 5 mg/kg/day or higher i.v.): 4 to 28 days
Time of polyuria peak (Sprague-Dawley rats; 5 mg/kg/day or higher i.v., from day 0-3): peaked at about one hour after dosing
Transient polyuria (Sprague-Dawley rats; 5 mg/kg/day or higher i.v., males and females): almost all males and females showed transient polyuria
Mortality (Sprague-Dawley rats; 0.05, 0.5, 5 and 50 mg/kg/day i.v., administration and recovery periods): no death occurred
Hematological changes relative to normal range (Sprague-Dawley rats; 50 mg/kg/day i.v., both sexes): within the range of normal physiological variations
Red blood cell count, hemoglobin and hematocrit (Sprague-Dawley rats; 50 mg/kg/day i.v., both sexes): increasing tendency in red blood cell count, hemoglobin and hematocrit
Total white blood cell count (Sprague-Dawley rats; 50 mg/kg/day i.v., both sexes): decreasing tendency in total white blood cell count
Systemic tremor (Sprague-Dawley rats; 50 mg/kg/day i.v., both sexes, from day 0): systemic tremor was observed transiently during the injection in both sexes
Day by which systemic tremor disappeared (Sprague-Dawley rats; 50 mg/kg/day i.v., females): ≤ 4 days
Day by which systemic tremor disappeared (Sprague-Dawley rats; 50 mg/kg/day i.v., males): ≤ 6 days
Reversibility of observed changes (Sprague-Dawley rats; after discontinuing administration, four-week recovery): All observed changes were reversed by discontinuing administration
Incidence of hypertrophy of serous cells in the submaxillary gland (histopathology) (Sprague-Dawley rats; both sexes, all treatment groups, i.v.): showed dose-dependency in both sexes of all treatment groups
Food consumption and body weight changes (Sprague-Dawley rats; females, i.v.): unremarkable
Blood biochemical parameters (Sprague-Dawley rats; i.v.): No treatment-related abnormalities were observed
Gross changes at autopsy (Sprague-Dawley rats; i.v.): no treatment-related grossly abnormal changes
Histopathology of other organs (light microscopy) (Sprague-Dawley rats; i.v.): no remarkable changes were shown at the light microscopic level
Liver and kidney electron microscopical examination (Sprague-Dawley rats; i.v.): nor were there any abnormal changes in the liver or kidney
Other hematological parameters (Sprague-Dawley rats; i.v.): not related to the dose
Urinary findings (other than urine volume) (Sprague-Dawley rats; i.v.): unremarkable
Other clinical signs (Sprague-Dawley rats; i.v., administration and recovery periods): no other remarkable clinical signs
Urine volume (Sprague-Dawley rats; males and females, 5 mg/kg/day or above i.v., week 2 and 5): increase in urine volume
Body weight gain (Sprague-Dawley rats; males, particularly 0.5, 5 and 50 mg/kg/day i.v.): body weight gain was suppressed in males
Food consumption (Sprague-Dawley rats; treated males, versus control males, i.v.): tended to decrease food consumption
Central nervous system effect (central nervous system): exhibits central nervous system stimulating effects
non-REM sleep RDI (respiratory disturbance incidents) ([2]; 100 mg/kg i.v.): 8 per hour
Arousal index ([2]; 100 mg/kg i.v.): 16
REM sleep RDI (respiratory disturbance incidents) ([2]; 100 mg/kg i.v.): 53 per hour
Lowest O2 saturation ([2]; 100 mg/kg i.v.): 92
Mean sleep efficiency ([2]; 100 mg/kg i.v.): 41%
non-REM sleep-disordered breathing events, result in words ([2]; 200 mg/kg and above, i.v.): significant reduction in non-REM sleep-disordered breathing events
non-REM sleep RDI (respiratory disturbance incidents) ([2]; 200 mg/kg i.v., p < 0.05): 0 per hour
Arousal index ([2]; 200 mg/kg i.v.): 7
REM sleep RDI (respiratory disturbance incidents) ([2]; 200 mg/kg i.v.): 70 per hour
Lowest O2 saturation ([2]; 200 mg/kg i.v.): 86
Mean sleep efficiency ([2]; 200 mg/kg i.v.): 37%
REM sleep occurrence, result in words ([2]; 400 mg/kg and 800 mg/kg, i.v.): the animal did not enter REM sleep
non-REM sleep RDI (respiratory disturbance incidents) ([2]; 400 mg/kg i.v.): 4 per hour
Arousal index ([2]; 400 mg/kg i.v.): 12
Lowest O2 saturation ([2]; 400 mg/kg i.v.): 92
Mean sleep efficiency ([2]; 400 mg/kg i.v.): 40%
non-REM sleep RDI (respiratory disturbance incidents) ([2]; 800 mg/kg i.v., p < 0.05): 2 per hour
Arousal index ([2]; 800 mg/kg i.v., p < 0.05): 6
Lowest O2 saturation ([2]; 800 mg/kg i.v.): 93
Mean sleep efficiency ([2]; 800 mg/kg i.v.): 38%
Dose dependence of non-REM breathing-decline episodes, result in words ([2]; 100 to 800 mg/kg i.v.): dose-dependent reduction in the number of episodes where breathing declines during non-REM sleep
Number of arousals per hour, result in words ([2]; i.v., versus saline): did reduce the number of arousals per hour
Oxyhemoglobin saturation during breathing episodes, result in words ([2]; i.v., versus saline): no effect on oxyhemoglobin saturation during breathing episodes
Sleep efficiency, result in words ([2]; i.v., versus saline): did not affect sleep efficiency
REM sleep RDI, result in words ([2]; lower dose levels, i.v.): there does not appear to have been an impact on REM sleep RDI

Reference: patent publication US5968932A, “Method of inhibiting sleep apnea” (Gruenenthal GmbH, priority 1998, dated 1999)
